From ChEMBL document CHEMBL1201862, “PubChem BioAssay data set” (2004)
Structures can show the parent of a compound that is named as a salt.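 Values below derive from 48-hour exposures of cells grown in 96-well plates, with endpoints linearly interpolated between the two concentrations bracketing the appropriate inhibition level. GI50 is the concentration that inhibits growth by half.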 Calls of active or inactive are those of the source. Cut-off read from the data, not from the text of the source: active = GI50 up to about 1.1 µM and inactive = higher.

Assays:
Assay in all cases: DTP human tumour cell line panel, 48 h
[1] = test system: BT-549
[2] = test system: CAKI-1
[3] = test system: HCT-116
[4] = test system: MDA-MB-231
[5] = test system: MDA-MB-435
[6] = test system: OVCAR-3
[7] = test system: PC-3
[8] = test system: SK-MEL-28
[9] = test system: SNB-19
[10] = test system: SR
[11] = test system: UO-31
[12] = test system: OVCAR-4
[13] = test system: RPMI-8226
[14] = test system: DLD-1
[15] = test system: DMS-273
[16] = test system: HOP-18
[17] = test system: KM-20L2
[18] = test system: NCI-H522
[19] = test system: SNB-78
[20] = test system: 786-0

Structure (SMILES)	GI50 [1]	GI50 [2]	GI50 [3]	GI50 [4]	GI50 [5]	GI50 [6]	GI50 [7]	GI50 [8]	GI50 [9]	GI50 [10]	GI50 [11]	GI50 [12]	GI50 [13]	GI50 [14]	GI50 [15]	GI50 [16]	GI50 [17]	GI50 [18]	GI50 [19]	GI50 [20]
O=C(N[C@H]1c2ccsc2/C(=N/O)[C@H]1O)C(F)(F)F	> 100 µM (inactive)	> 100 µM (inactive)	> 100 µM (inactive)	> 10 µM (inactive)	> 100 µM (inactive)	> 100 µM (inactive)	> 100 µM (inactive)	> 100 µM (inactive)	> 100 µM (inactive)	> 100 µM (inactive)	> 100 µM (inactive)									
CCCc1c(-c2ccccc2)[nH]c2ccccc2c1=O	40.5 µM (inactive)		24.3 µM (inactive)	32.2 µM (inactive)	37.3 µM (inactive)	31.5 µM (inactive)	> 100 µM (inactive)	33.7 µM (inactive)	65.2 µM (inactive)	> 100 µM (inactive)	19.2 µM (inactive)	> 100 µM (inactive)	54.6 µM (inactive)							
CCCCn1cc[n+](-c2nc3ccccc3n2C)c1		> 100 µM (inactive)	> 100 µM (inactive)			> 100 µM (inactive)			> 100 µM (inactive)	> 100 µM (inactive)	> 100 µM (inactive)	> 100 µM (inactive)	> 100 µM (inactive)	> 100 µM (inactive)	> 100 µM (inactive)	> 100 µM (inactive)	> 100 µM (inactive)	> 100 µM (inactive)	> 100 µM (inactive)	
c1ccc(Nc2nnc(-c3nsc4ccccc34)o2)cc1			74.1 µM (inactive)			14 µM (inactive)		> 100 µM (inactive)	37.8 µM (inactive)	> 100 µM (inactive)	> 100 µM (inactive)	41 µM (inactive)	> 100 µM (inactive)		46.6 µM (inactive)	> 100 µM (inactive)	> 100 µM (inactive)		89.5 µM (inactive)	
CC(=O)Oc1ccc(C2COc3cc(OC(C)=O)c(OC(C)=O)cc3C2)cc1 (centres undefined)		16.3 µM (inactive)	17.4 µM (inactive)			13.7 µM (inactive)		16.3 µM (inactive)	32.2 µM (inactive)		22.3 µM (inactive)	14.4 µM (inactive)	14.9 µM (inactive)	17.9 µM (inactive)	21.9 µM (inactive)	12.8 µM (inactive)	37.2 µM (inactive)	2.8 µM (inactive)	24.3 µM (inactive)	
C/C(=C\c1ccccc1)C(=O)CCN1CCOCC1		18.1 µM (inactive)	28 µM (inactive)			19.3 µM (inactive)		19.4 µM (inactive)	> 44.9 µM (inactive)		20.8 µM (inactive)	18 µM (inactive)	3.15 µM (inactive)	17.3 µM (inactive)	19.7 µM (inactive)	18.3 µM (inactive)	19.5 µM (inactive)	7.94 µM (inactive)	15.6 µM (inactive)	
C=CC1(c2ccc3ccccc3c2)OCC(CC)O1 (centres undefined)			40.9 µM (inactive)	0.207 µM (active)	63.4 µM (inactive)	47 µM (inactive)	28 µM (inactive)	> 100 µM (inactive)	94 µM (inactive)	19.8 µM (inactive)	63.5 µM (inactive)	55.6 µM (inactive)	46.3 µM (inactive)					40.6 µM (inactive)		85.9 µM (inactive)
CC(C)(CCCCC(C)(C)C1NC(=O)N1)C1NC(=O)N1		> 10 µM (inactive)	> 10 µM (inactive)	> 10 µM (inactive)	> 10 µM (inactive)		> 10 µM (inactive)	> 10 µM (inactive)	> 10 µM (inactive)		5.05 µM (inactive)	> 10 µM (inactive)	> 10 µM (inactive)					> 10 µM (inactive)		
C1=C2C3=[N+](CCCCC3)CC2Cc2ccsc21 (centres undefined)	51.2 µM (inactive)	> 100 µM (inactive)	> 100 µM (inactive)	> 100 µM (inactive)	60.3 µM (inactive)	56.5 µM (inactive)	39.5 µM (inactive)	> 100 µM (inactive)	81.1 µM (inactive)		> 100 µM (inactive)	43.4 µM (inactive)						39.7 µM (inactive)		> 100 µM (inactive)
CN1CCc2[nH]c3ccccc3c2C1		> 100 µM (inactive)	> 100 µM (inactive)			> 100 µM (inactive)		> 100 µM (inactive)	> 100 µM (inactive)		> 100 µM (inactive)	> 100 µM (inactive)	> 100 µM (inactive)	> 100 µM (inactive)	> 100 µM (inactive)	> 100 µM (inactive)	> 100 µM (inactive)	> 100 µM (inactive)	> 100 µM (inactive)	
COc1cc2c(cc1OC)C1Cc3cc(OC)c(OC)cc3C(C2)O1	> 100 µM (inactive)	44.9 µM (inactive)	> 100 µM (inactive)	29.1 µM (inactive)	> 100 µM (inactive)	> 100 µM (inactive)	> 100 µM (inactive)	> 100 µM (inactive)	> 100 µM (inactive)		83.8 µM (inactive)	> 100 µM (inactive)	35.2 µM (inactive)							
C[C@]12CC[C@H]3[C@@H](CC=C4C[C@@H](O)CC[C@@]43C)[C@@H]1C/C(=C\c1ccc([N+](=O)[O-])cc1)[C@@H]2O	14.6 µM (inactive)	13.8 µM (inactive)	3.92 µM (inactive)	7.93 µM (inactive)	22.5 µM (inactive)	16.3 µM (inactive)	14.3 µM (inactive)	19.3 µM (inactive)	16.9 µM (inactive)	8.41 µM (inactive)	8.93 µM (inactive)	< 0.01 µM (active)	7.48 µM (inactive)					9.98 µM (inactive)		10.9 µM (inactive)
COc1ccc(/C=C2/C(=O)N(C(=O)c3ccccc3O)N=C2C)cc1	0.105 µM (active)	0.0962 µM (active)	0.091 µM (active)	0.126 µM (active)	0.05 µM (active)	0.338 µM (active)	0.535 µM (active)	9.4 µM (inactive)	0.0484 µM (active)	0.232 µM (active)	0.0445 µM (active)	0.655 µM (active)	0.895 µM (active)	0.0828 µM (active)			16.5 µM (inactive)	0.356 µM (active)	0.033 µM (active)	0.598 µM (active)
CNCCC=C1c2ccccc2CCc2ccccc21 [NORTRIPTYLINE HYDROCHLORIDE]	15.5 µM (inactive)	13.8 µM (inactive)	14.6 µM (inactive)	> 37 µM (inactive)	13.5 µM (inactive)	11.4 µM (inactive)	14.3 µM (inactive)	13.5 µM (inactive)	16.6 µM (inactive)	12.1 µM (inactive)	6.14 µM (inactive)	14 µM (inactive)	12.6 µM (inactive)					14.6 µM (inactive)		14.6 µM (inactive)
COc1ccc(C(O)/C(=N\NC(N)=S)c2nc3ccc([N+](=O)[O-])cc3nc2O)cc1OC (centres undefined)								> 100 µM (inactive)			> 100 µM (inactive)	> 100 µM (inactive)	> 100 µM (inactive)	> 100 µM (inactive)	> 100 µM (inactive)	44.2 µM (inactive)	> 100 µM (inactive)	32.4 µM (inactive)		> 100 µM (inactive)
ClCCCN1CCCCC1CCl (centres undefined)		26.7 µM (inactive)	> 100 µM (inactive)			> 100 µM (inactive)		> 100 µM (inactive)	> 100 µM (inactive)	24.8 µM (inactive)	92.7 µM (inactive)	> 100 µM (inactive)	> 100 µM (inactive)	> 100 µM (inactive)	62.2 µM (inactive)	> 100 µM (inactive)	> 100 µM (inactive)	> 100 µM (inactive)		72.1 µM (inactive)
Cc1cc(C)c(NC(=O)/C=C/c2ccccc2)c(C)c1	> 100 µM (inactive)				> 100 µM (inactive)	> 100 µM (inactive)	> 100 µM (inactive)	> 100 µM (inactive)	61.9 µM (inactive)	7.28 µM (inactive)	> 100 µM (inactive)	94.6 µM (inactive)	> 100 µM (inactive)					6 µM (inactive)		
